Data taken from PMC10611828 (European Journal of Nuclear Medicine and Molecular Imaging, 2023).
Like-named read-outs stand apart in the source and are kept apart here.

Key:
[1] = In vivo biodistribution and clearance in PC-3 tumor-bearing mice; conditions: male, NMRI-Foxn1 nu/nu, mouse, iv, total radioactivity, i.v.; for tissue uptake at 1 h: 1 h p.i.; for tissue uptake at 4 h: 4 h p.i.; for tissue uptake at 24 h: 24 h p.i.; for tissue uptake at 48 h: 48 h p.i.; for tissue uptake at 72 h: 72 h p.i.
Experimental: All animal experiments were approved by the Animal Welfare Committee of the Erasmus MC, and all experiments were conducted in accordance to institutional guidelines.
At 1, 4, 24, 48, and 72 h post-injection (p.i.), animals were sedated using 2.5% isoflurane in oxygen, and blood was collected via the orbital vein, after which the animals were euthanized using cervical dislocation. Subsequently, the following organs were collected; the tail, tumor, spleen, liver, pancreas, small intestine, colon, coecum, kidneys, lung, and muscle. […] The collected tumor and organs were weighed, and the radioactivity was measured in the gamma counter. The biodistribution data are expressed as percentage injected dose per gram of tissue (% ID/g). Animal numbers per group are indicated in Supplementary Table 1 and 2.
Statistical analysis was performed using Graphpad Prism version 9.0.0. Outliers were identified using the ROUT method with a Q value of 1%. IC50 curves were determined using non-linear regression.

[2] = Stability in human serum at 37 °C (radio-HPLC); format: in vitro ADME; conditions: read-out: intact radiolabeled ligand (RCP)
Experimental: (§1) The ^177Lu-labeled peptides were incubated in 300-μL phosphate buffered saline (PBS; Gibco, ThermoFisher, The Netherlands) at 37 °C, and their stability was verified after 1, 4, 24, 48, and 72 h by radio-HPLC (Supplementary Fig. 2). The stability in serum was determined by incubating the radiolabeled compounds into 300 μL of mouse serum (Invitrogen, USA) or human serum (Sigma Aldrich, USA) at 37 °C (Supplementary Fig. 3, 4). At each time point post-incubation, 35 μL of the mixture was added to an Eppendorf tube, and the proteins were precipitated by adding an equal volume of acetonitrile. The tubes were centrifuged at 16,000 rpm, 4 °C for 20 min, and the stability was monitored by radio-HPLC, expressed as the RCP at the different time points.

[3] = Stability in mouse serum at 37 °C (radio-HPLC); format: in vitro ADME; conditions: read-out: intact radiolabeled ligand (RCP)
Experimental: as §1

[4] = PC-3 tumor, read-out: % uptake PC-3 tumor
[5] = gastrointestinal tract, read-out: % uptake gastrointestinal tract
[6] = kidney, read-out: % uptake kidney
[7] = liver, read-out: % uptake liver
[8] = muscle, read-out: % uptake muscle
[9] = pancreas, read-out: % uptake pancreas
[10] = prostate, read-out: % uptake prostate
[11] = spleen, read-out: % uptake spleen

tissue uptake at 1 h [1, 4]: 9.27 ± 1.81 %ID/g
tissue uptake at 4 h [1, 4]: 9.14 ± 0.94 %ID/g
tissue uptake at 24 h [1, 4]: 7.32 %ID/g
tissue uptake at 48 h [1, 4]: 5.47 %ID/g
tissue uptake at 72 h [1, 4]: 2.97 %ID/g
tissue uptake at 1 h ([1]; blood, read-out: % uptake blood): 0.3 %ID/g
tissue uptake at 1 h [1, 5]: 1.75 %ID/g
tissue uptake at 4 h [1, 5]: 0.56 %ID/g
tissue uptake at 24 h [1, 5]: 0.05 %ID/g
tissue uptake at 48 h [1, 5]: 0.03 %ID/g
tissue uptake at 72 h [1, 5]: 0.01 %ID/g
tissue uptake at 1 h [1, 6]: 3 %ID/g
tissue uptake at 4 h [1, 6]: 1.69 %ID/g
tissue uptake at 24 h [1, 6]: 0.63 %ID/g
tissue uptake at 48 h [1, 6]: 0.26 %ID/g
tissue uptake at 72 h [1, 6]: 0.12 %ID/g
tissue uptake at 1 h [1, 7]: 0.2 %ID/g
tissue uptake at 4 h [1, 7]: 0.09 %ID/g
tissue uptake at 24 h [1, 7]: 0.04 %ID/g
tissue uptake at 48 h [1, 7]: 0.03 %ID/g
tissue uptake at 72 h [1, 7]: 0.02 %ID/g
tissue uptake at 1 h ([1]; lung, read-out: % uptake lungs): 0.3 %ID/g
tissue uptake at 4 h ([1]; lung, read-out: % uptake lungs): 0.04 %ID/g
tissue uptake at 24 h ([1]; lung, read-out: % uptake lungs): 0.02 %ID/g
tissue uptake at 48 h ([1]; lung, read-out: % uptake lungs): 0.01 %ID/g
tissue uptake at 72 h ([1]; lung, read-out: % uptake lungs): 0.01 %ID/g
tissue uptake at 1 h [1, 8]: 0.06 %ID/g
tissue uptake at 4 h [1, 8]: 0.01 %ID/g
tissue uptake at 24 h [1, 8]: 0.01 %ID/g
tissue uptake at 1 h [1, 9]: 14.4 ± 2.56 %ID/g
tissue uptake at 4 h [1, 9]: 2.07 ± 0.3 %ID/g
tissue uptake at 24 h [1, 9]: 0.25 %ID/g
tissue uptake at 48 h [1, 9]: 0.14 %ID/g
tissue uptake at 72 h [1, 9]: 0.05 %ID/g
tissue uptake at 1 h [1, 10]: 1.08 %ID/g
tissue uptake at 4 h [1, 10]: 0.03 %ID/g
tissue uptake at 24 h [1, 10]: 0.03 %ID/g
tissue uptake at 48 h [1, 10]: 0.02 %ID/g
tissue uptake at 72 h [1, 10]: 0.01 %ID/g
tissue uptake at 1 h [1, 11]: 0.19 %ID/g
tissue uptake at 4 h [1, 11]: 0.06 %ID/g
tissue uptake at 24 h [1, 11]: 0.04 %ID/g
tissue uptake at 48 h [1, 11]: 0.03 %ID/g
tissue uptake at 72 h [1, 11]: 0.02 %ID/g
remaining at 1 h ([2]; 1 h): 96.7 ± 0.7%
remaining at 4 h ([2]; 4 h): 95.5 ± 1.1%
remaining at 24 h ([2]; 24 h): 94.9 ± 1.5%
remaining at 48 h ([2]; 48 h): 92.3 ± 1.9%
remaining at 72 h ([2]; 72 h): 88.4 ± 0.6%
remaining at 1 h ([3]; 1 h): 90.9 ± 0.5%
remaining at 24 h ([3]; 24 h): 29.6 ± 1.2%
remaining at 48 h ([3]; 48 h): 17.1 ± 3.5%
remaining at 72 h ([3]; 72 h): 5.3 ± 0.9%
SMILES: CC(C)C[C@H](NC(=O)C[C@H](O)[C@H](CC(C)C)NC(=O)[C@H](Cc1c[nH]cn1)NC(=O)CNC(=O)[C@@H](NC(=O)[C@H](C)NC(=O)[C@H](Cc1c[nH]c2ccccc12)NC(=O)[C@H](CCC(N)=O)NC(=O)[C@@H](Cc1ccccc1)NC(=O)CN1CCC(NC(=O)CN2CCN(CC(=O)O)CCN(CC(=O)O)CCN(CC(=O)O)CC2)CC1)C(C)C)C(N)=O [[^177Lu]Lu-RM2, metal not drawn]
